Experimental data as given in ChEMBL document CHEMBL1131633, “Design, synthesis, and biological activities of new thieno[3,2-d] pyrimidines as selective type 4 phosphodiesterase inhibitors” (J Med Chem, 1998).

Columns and labels:
[1] = target: Phosphodiesterase 3 (Cavia porcellus); assay: Inhibitory activity against cGMP inhibited Phosphodiesterase 3, isolated from guinea pig ventricular tissue
[2] = target: Phosphodiesterase 4 (Cavia porcellus); assay: Inhibitory activity against phosphodiesterase 4 isolated from guinea pig ventricular tissue
[3] = target: Phosphodiesterase 4 (Rattus norvegicus) (UniProt P14270+P14646+P14644+P54748); assay: Displacement of [3H]rolipram from Phosphodiesterase 4 in rat brain membranes at 10 uM; type: cell membranes
[4] = target: Phosphodiesterase 4 (Cavia porcellus); assay: Increased cAMP accumulation in isoprenaline-induced guinea pig eosinophils

Row | SMILES | IC50 [1] | IC50 [2] | inhibition [3] | EC50 [4]
1 | CCCCc1nc2ccsc2c(=O)n1Cc1ccccc1 | 43 µM | 5 µM |  | 
2 | CCCCc1nc(NCc2ccncc2)c2sccc2n1 | 29 µM | 0.6 µM |  | 
3 | CCCCc1nc(NCc2ccc(-c3ccccc3)cc2)c2sccc2n1 | 200 µM | > 200 µM |  | 
4 | CCCCc1nc(N(Cc2ccccc2)Cc2ccccc2)c2sccc2n1 | > 200 µM | 4 µM | 37% | 
5 | c1ccc(CNc2ncnc3ccsc23)cc1 | 68 µM | 14 µM |  | 18 µM
6 | CCCCc1nc(NC(=O)c2ccccc2)c2sccc2n1 | > 200 µM | 23 µM |  | 
7 | CCCc1nc2ccccc2n(Cc2ccccc2)c1=O | > 200 µM | 0.9 µM |  | 
8 | CCCc1nc2cccnc2n(Cc2ccccc2)c1=O | > 200 µM | 1 µM |  | 
9 | c1ccc(CNc2nc(N3CCCCC3)nc3ccsc23)cc1 | > 200 µM | 65 µM |  | 21 µM

Results, then the molecule that gave them:

Row | IC50 [1] | IC50 [2] | inhibition [3] | EC50 [4] | SMILES
10 | > 200 µM | 10 µM |  |  | CCCCc1nc2ncccc2c(=O)n1Cc1ccccc1
11 | > 200 µM | 16 µM |  |  | CCCCc1nc2ccccc2c(=O)n1Cc1ccccc1
12 | > 200 µM | 29 µM |  |  | c1ccc(CNc2[nH]c(Cc3ccccc3)nc3ncnc2-3)cc1
13 | > 200 µM | 3 µM | 8% |  | c1ccc(CNc2nc(-c3ccccc3)nc3ccsc23)cc1
14 | > 200 µM | 2.5 µM | 37% |  | CCCCc1nc(N(CCC)Cc2ccccc2)c2sccc2n1
15 | 45 µM | 6.7 µM |  |  | CCCCc1nc(NCc2ccccc2)c2nccnc2n1
16 | 30 µM | 2.3 µM | 41% |  | CCc1nc(NCc2ccccc2)c2sccc2n1
17 | 8.5 µM | 6.3 µM |  |  | CCCCc1nc(NCc2ccc([N+](=O)[O-])cc2)c2sccc2n1
18 | 5 µM | 1.5 µM |  |  | c1ccc(CNc2nc(Cc3ccccc3)nc3ccsc23)cc1
